One assay concerns the target T1, human GLP-2 receptor (Homo sapiens, UniProt O95838).
T1 construct: host or cells: COS-7 (transient, calcium phosphate; pCMV-Script vector)
T1 sequence (O95838 1-553): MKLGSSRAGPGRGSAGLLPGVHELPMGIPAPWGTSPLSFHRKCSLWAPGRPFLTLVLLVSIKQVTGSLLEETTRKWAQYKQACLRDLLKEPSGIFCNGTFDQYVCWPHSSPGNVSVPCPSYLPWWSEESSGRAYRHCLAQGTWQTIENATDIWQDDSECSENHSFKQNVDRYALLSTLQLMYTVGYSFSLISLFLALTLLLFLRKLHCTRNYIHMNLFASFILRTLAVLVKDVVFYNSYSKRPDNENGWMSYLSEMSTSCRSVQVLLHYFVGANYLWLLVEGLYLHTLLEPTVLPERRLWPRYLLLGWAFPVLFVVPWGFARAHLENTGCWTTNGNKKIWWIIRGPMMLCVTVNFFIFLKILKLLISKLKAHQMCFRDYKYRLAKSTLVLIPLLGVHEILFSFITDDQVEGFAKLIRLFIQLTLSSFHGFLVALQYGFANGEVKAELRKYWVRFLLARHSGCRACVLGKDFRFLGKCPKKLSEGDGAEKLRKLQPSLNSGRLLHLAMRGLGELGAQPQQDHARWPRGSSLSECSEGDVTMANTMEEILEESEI
The experiment in a line: cAMP accumulation assay (HitHunter cAMP XS) in transiently transfected COS-7 cells expressing the human GLP-2 receptor. In kind it is cell-based. The settings on record: for Emax at 10 µM: COS-7, read-out: Emax (10 μM), GLP-2 receptor; for fold (fold change of native GLP-2), GLP-2 receptor: EC50 relative to native GLP-2; for EC50: logEC50, GLP-2 receptor, cAMP, COS-7. The procedure:
(§1) The day after, the cells were washed twice with Hepes buffered saline (HBS) buffer and incubated with HBS and 1 mM 3-isobutyl-1-methylxanthine (IBMX) for 30 min at 37° C. Ligands were added and incubated for 30 min at 37° C. The HitHunter™ cAMP XS assay (DiscoveRx) was carried out according to the manufacturer's instructions.
In general terms: Cyclic AMP is a second messenger, typically raised through Gs and lowered through Gi signalling.

Another assay deals with T2, human GIP receptor (Homo sapiens, UniProt P48546).
T2 construct: host or cells: COS-7 (transient, calcium phosphate; pCMV-Script vector)
T2 sequence (P48546 22-466): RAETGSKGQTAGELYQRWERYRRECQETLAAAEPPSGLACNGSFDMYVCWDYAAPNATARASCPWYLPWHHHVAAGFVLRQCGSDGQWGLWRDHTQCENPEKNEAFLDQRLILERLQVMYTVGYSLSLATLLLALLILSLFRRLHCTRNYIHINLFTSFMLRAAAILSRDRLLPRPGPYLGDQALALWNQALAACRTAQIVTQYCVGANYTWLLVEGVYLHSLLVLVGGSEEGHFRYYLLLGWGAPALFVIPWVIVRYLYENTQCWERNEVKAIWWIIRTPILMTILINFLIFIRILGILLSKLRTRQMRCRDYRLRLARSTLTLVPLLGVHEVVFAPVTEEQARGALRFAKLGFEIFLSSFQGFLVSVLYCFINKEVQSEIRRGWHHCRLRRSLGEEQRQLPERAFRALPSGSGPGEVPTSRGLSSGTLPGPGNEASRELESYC
The experiment in a line: cAMP accumulation assay (HitHunter cAMP XS) in transiently transfected COS-7 cells expressing the human GIP receptor. In kind it is cell-based. The settings on record: for Emax at 10 µM: COS-7, read-out: Emax (10 μM), GIP receptor; for fold (fold change of native GIP), GIP receptor: EC50 relative to native GIP; for EC50: logEC50, GIP receptor, log value, cAMP, COS-7. The procedure:
as §1

The structures appear in SMILES notation. Peptide text beside a SMILES is read from it. * marks the point of attachment. Palmitoyl = CCCCCCCCCCCCCCCC(=O)*

What is called Emax is the size of the effect at its maximum, as opposed to the concentration needed. On to `CC[C@H](C)[C@H](NC(=O)[C@H](Cc1ccccc1)NC(=O)[C@H](CC(=O)O)NC(=O)[C@H](CCCNC(=N)N)NC(=O)[C@H](C)NC(=O)[C@H](C)NC(=O)[C@H](CC(C)C)NC(=O)[C@H](CC(N)=O)NC(=O)[C@H](CC(=O)O)NC(=O)[C@H](CC(C)C)NC(=O)[C@@H](NC(=O)[C@@H](NC(=O)[C@H](CO)NC(=O)[C@H](Cc1ccc(O)cc1)NC(=O)[C@H](CC(=O)O)NC(=O)[C@H](CO)NC(=O)[C@@H](NC(=O)[C@H](Cc1ccccc1)NC(=O)[C@@H](NC(=O)CNC(=O)[C@H](CC(=O)O)NC(=O)[C@H](C)NC(=O)[C@@H](N)Cc1c[nH]cn1)[C@@H](C)O)[C@@H](C)CC)[C@@H](C)O)[C@@H](C)CC)C(=O)N[C@@H](CC(N)=O)C(=O)N[C@@H](Cc1c[nH]c2ccccc12)C(=O)N[C@@H](CC(C)C)C(=O)N[C@H](C(=O)N[C@@H](CCC(N)=O)C(=O)N[C@H](C(=O)N[C@@H](CCCCN)C(=O)N[C@H](C(=O)N[C@H](C(=O)N[C@@H](CCCCN)C(=O)O)[C@@H](C)O)[C@@H](C)CC)[C@@H](C)O)[C@@H](C)CC` [Co-agonist 18], for which the Emax at 10 µM on human GLP-2 receptor was found to be 94%. At human GLP-2 receptor (Table 1), the “potency and efficacy on the GLP-2R compared with native GLP-2, in words” value was “almost the same potency and efficacy”; the “fold (fold change of native GLP-2), GLP-2 receptor” value stood at 4.4 fold. The Emax at 10 µM at human GIP receptor came out at 89%. For the same molecule, on human GIP receptor (Table 1), the “potency (and efficacy) on the GIP receptor compared with native GIP, in words” value is “almost the same potency and efficacy”; the “fold (fold change of native GIP), GIP receptor” value (shortened to “fold (fold change of native GIP)”) is 7.4 fold.

One may read the EC50 as the midpoint of the concentration-response curve. `CCCCCCCCCCCCCCCC(=O)NCCCC[C@H](NC(=O)[C@H](C)NC(=O)[C@H](C)NC(=O)[C@H](CC(C)C)NC(=O)[C@H](CC(N)=O)NC(=O)[C@H](CC(=O)O)NC(=O)[C@H](CC(C)C)NC(=O)[C@@H](NC(=O)[C@@H](NC(=O)[C@H](CO)NC(=O)[C@H](Cc1ccc(O)cc1)NC(=O)[C@H](CC(=O)O)NC(=O)[C@H](CO)NC(=O)[C@H](CO)NC(=O)[C@H](Cc1ccccc1)NC(=O)[C@@H](NC(=O)CNC(=O)[C@H](CC(=O)O)NC(=O)[C@H](C)NC(=O)[C@@H](N)Cc1c[nH]cn1)[C@@H](C)O)[C@@H](C)O)[C@@H](C)CC)C(=O)N[C@@H](CC(=O)O)C(=O)N[C@@H](Cc1ccccc1)C(=O)N[C@H](C(=O)N[C@@H](CC(N)=O)C(=O)N[C@@H](Cc1c[nH]c2ccccc12)C(=O)N[C@@H](CC(C)C)C(=O)N[C@H](C(=O)N[C@@H](CCC(N)=O)C(=O)N[C@H](C(=O)N[C@@H](CCCCN)C(=O)N[C@H](C(=O)N[C@H](C(=O)N[C@@H](CC(=O)O)C(=O)O)[C@@H](C)O)[C@@H](C)CC)[C@@H](C)O)[C@@H](C)CC)[C@@H](C)CC` [Co-agonist 21] (H-HADGTFSSDYSTILDNLAAK(Palmitoyl)DFINWLIQTKITD-OH; N-terminus and C-terminus assumed): the maximal effect (Emax) at 10 µM on human GLP-2 receptor is 75%. Moreover, at human GLP-2 receptor (Table 2), the “fold (fold change of native GLP-2), GLP-2 receptor” value is on record as 5.0 fold. Besides, at human GIP receptor, the maximum response (Emax) at 10 µM is 94%. Besides, at human GIP receptor (Table 2), the “fold (fold change of native GIP)” value was determined as 381 fold and the midpoint of the response, the EC50, lay at 33.9 nM.

Consider `CCCCCCCCCCCCCCCC(=O)N[C@@H](Cc1c[nH]cn1)C(=O)N[C@@H](C)C(=O)N[C@@H](CC(=O)O)C(=O)NCC(=O)N[C@H](C(=O)N[C@@H](Cc1ccccc1)C(=O)N[C@@H](CO)C(=O)N[C@@H](CO)C(=O)N[C@@H](CC(=O)O)C(=O)N[C@@H](Cc1ccc(O)cc1)C(=O)N[C@@H](CO)C(=O)N[C@H](C(=O)N[C@H](C(=O)N[C@@H](CC(C)C)C(=O)N[C@@H](CC(=O)O)C(=O)N[C@@H](CC(N)=O)C(=O)N[C@@H](CC(C)C)C(=O)N[C@@H](C)C(=O)N[C@@H](C)C(=O)N[C@@H](CCCNC(=N)N)C(=O)N[C@@H](CC(=O)O)C(=O)N[C@@H](Cc1ccccc1)C(=O)N[C@H](C(=O)N[C@@H](CC(N)=O)C(=O)N[C@@H](Cc1c[nH]c2ccccc12)C(=O)N[C@@H](CC(C)C)C(=O)N[C@H](C(=O)N[C@@H](CCC(N)=O)C(=O)N[C@H](C(=O)N[C@@H](CCCCN)C(=O)N[C@H](C(=O)N[C@H](C(=O)N[C@@H](CC(=O)O)C(=O)O)[C@@H](C)O)[C@@H](C)CC)[C@@H](C)O)[C@@H](C)CC)[C@@H](C)CC)[C@@H](C)CC)[C@@H](C)O)[C@@H](C)O` [Co-agonist 22] (Palmitoyl-HADGTFSSDYSTILDNLAARDFINWLIQTKITD-OH), for which the maximal effect (Emax) at 10 µM on human GLP-2 receptor is 72%; on human GIP receptor it was 100%. Also, the EC50 at human GLP-2 receptor (Table 2) is 1.32 nM; on human GIP receptor (Table 2), 0.407 nM.

For `CCCCCCCCCCCCCCCC(=O)NCCCC[C@H](NC(=O)[C@@H](NC(=O)[C@H](CCC(N)=O)NC(=O)[C@@H](NC(=O)[C@H](CC(C)C)NC(=O)[C@H](Cc1c[nH]c2ccccc12)NC(=O)[C@H](CC(N)=O)NC(=O)[C@@H](NC(=O)[C@H](Cc1ccccc1)NC(=O)[C@H](CC(=O)O)NC(=O)[C@H](CCCNC(=N)N)NC(=O)[C@H](C)NC(=O)[C@H](C)NC(=O)[C@H](CC(C)C)NC(=O)[C@H](CC(N)=O)NC(=O)[C@H](CC(=O)O)NC(=O)[C@H](CC(C)C)NC(=O)[C@@H](NC(=O)[C@@H](NC(=O)[C@H](CO)NC(=O)[C@H](Cc1ccc(O)cc1)NC(=O)[C@H](CC(=O)O)NC(=O)[C@H](CO)NC(=O)[C@H](CO)NC(=O)[C@H](Cc1ccccc1)NC(=O)[C@@H](NC(=O)CNC(=O)[C@H](CC(=O)O)NC(=O)[C@H](C)NC(=O)[C@@H](N)Cc1c[nH]cn1)[C@@H](C)O)[C@@H](C)O)[C@@H](C)CC)[C@@H](C)CC)[C@@H](C)CC)[C@@H](C)O)C(=O)N[C@H](C(=O)N[C@H](C(=O)N[C@@H](CC(=O)O)C(=O)O)[C@@H](C)O)[C@@H](C)CC` [Co-agonist 23] (H-HADGTFSSDYSTILDNLAARDFINWLIQTK(Palmitoyl)ITD-OH; N-terminus and C-terminus assumed), the Emax at 10 µM on human GLP-2 receptor was 57%; at human GIP receptor, 81%. At human GLP-2 receptor (Table 2), the “fold (fold change of native GLP-2), GLP-2 receptor” value turned out to be 1.2 fold. The molecule further showed an EC50 on human GLP-2 receptor (Table 2) of 1.41 nM. The “fold (fold change of native GIP)” value on human GIP receptor (Table 2) worked out at 8.5 fold.

`CC[C@H](C)[C@H](NC(=O)[C@H](Cc1ccccc1)NC(=O)[C@H](CC(=O)O)NC(=O)[C@H](CCCCN)NC(=O)[C@H](C)NC(=O)[C@H](C)NC(=O)[C@H](CC(C)C)NC(=O)[C@H](CC(N)=O)NC(=O)[C@H](CC(=O)O)NC(=O)[C@H](CC(C)C)NC(=O)[C@@H](NC(=O)[C@@H](NC(=O)[C@H](CO)NC(=O)[C@H](Cc1ccc(O)cc1)NC(=O)[C@H](CC(=O)O)NC(=O)[C@H](CO)NC(=O)[C@@H](NC(=O)[C@H](Cc1ccccc1)NC(=O)[C@@H](NC(=O)CNC(=O)[C@H](CC(=O)O)NC(=O)[C@H](C)NC(=O)[C@@H](N)Cc1c[nH]cn1)[C@@H](C)O)[C@@H](C)CC)[C@@H](C)O)[C@@H](C)CC)C(=O)N[C@@H](CC(N)=O)C(=O)N[C@@H](Cc1c[nH]c2ccccc12)C(=O)N[C@@H](CC(C)C)C(=O)N[C@H](C(=O)N[C@@H](CCC(N)=O)C(=O)N[C@H](C(=O)N[C@@H](CCCCN)C(=O)N[C@H](C(=O)N[C@H](C(=O)N[C@@H](CCCCN)C(=O)O)[C@@H](C)O)[C@@H](C)CC)[C@@H](C)O)[C@@H](C)CC` [Co-agonist 28]: the Emax at 10 µM on human GLP-2 receptor stood at 112%; at human GIP receptor, 100%. At human GIP receptor (Table 2), this molecule gave a 50% effective concentration (EC50) of 0.2 nM.

These data come from patent publication US11725037B2, “Peptide dual agonists of GIPR and GLP2R” (University of Copenhagen, priority 2017, dated 2023).
